Measured values published in patent publication US20250215012A1, “IKZF2 DEGRADERS AND USES THEREOF” (REGENTS OF THE UNIVERSITY OF MICHIGAN, priority 2022, published 2025).

Target: IKZF2 (Homo sapiens (Human), UniProt Q96SW2+Q9UKS7)
Test: IKZF2 HiBiT Assay (Jurkat-IKZF2-HiBiT cell line)
Format: cell-based
Details: Jurkat-IKZF2-HiBiT cells, 24 hours; for DC50: read-out: HiBit assay degradation analysis DC50; for Dmax: read-out: HiBit assay degradation analysis Dmax
How it was run: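 Jurkat cells carrying HiBiT-tagged IKZF2 were exposed to serially diluted compound for 24 h at 37 °C. Remaining IKZF2 was measured by Nano-Glo HiBiT lytic luminescence after 10-20 min at room temperature. Signal was normalized to DMSO, and IC50 came from a four-parameter variable-slope fit.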

Sequence of IKZF2 (Q9UKS7 whole entry): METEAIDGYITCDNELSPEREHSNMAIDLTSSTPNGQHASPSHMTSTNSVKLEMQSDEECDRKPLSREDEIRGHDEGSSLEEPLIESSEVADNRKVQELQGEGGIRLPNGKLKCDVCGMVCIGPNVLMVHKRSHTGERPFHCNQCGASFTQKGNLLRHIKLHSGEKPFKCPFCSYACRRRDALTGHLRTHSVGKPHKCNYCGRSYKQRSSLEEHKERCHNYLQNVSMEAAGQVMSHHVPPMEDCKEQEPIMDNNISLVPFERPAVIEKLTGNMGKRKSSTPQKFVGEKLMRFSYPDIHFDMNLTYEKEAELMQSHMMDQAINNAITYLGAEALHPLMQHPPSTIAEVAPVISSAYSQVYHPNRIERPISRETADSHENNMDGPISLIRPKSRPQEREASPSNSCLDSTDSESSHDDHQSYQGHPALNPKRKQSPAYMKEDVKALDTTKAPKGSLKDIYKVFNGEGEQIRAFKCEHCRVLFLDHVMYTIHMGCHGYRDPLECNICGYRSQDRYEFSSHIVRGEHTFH
Sequence of IKZF2 (Q96SW2 whole entry): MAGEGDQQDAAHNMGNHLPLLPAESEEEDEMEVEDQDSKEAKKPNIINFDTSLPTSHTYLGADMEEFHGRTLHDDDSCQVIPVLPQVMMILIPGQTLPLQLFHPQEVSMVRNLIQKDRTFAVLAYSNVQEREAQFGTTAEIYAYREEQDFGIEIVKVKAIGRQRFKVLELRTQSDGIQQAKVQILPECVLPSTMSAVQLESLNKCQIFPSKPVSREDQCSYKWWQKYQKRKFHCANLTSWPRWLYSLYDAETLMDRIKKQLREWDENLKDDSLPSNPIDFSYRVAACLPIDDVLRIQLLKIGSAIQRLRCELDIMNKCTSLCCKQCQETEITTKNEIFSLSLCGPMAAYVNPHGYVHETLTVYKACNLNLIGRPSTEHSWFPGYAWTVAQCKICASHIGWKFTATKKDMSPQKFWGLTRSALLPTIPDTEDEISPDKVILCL
Sequence of IKZF2 (Q16531 whole entry partner): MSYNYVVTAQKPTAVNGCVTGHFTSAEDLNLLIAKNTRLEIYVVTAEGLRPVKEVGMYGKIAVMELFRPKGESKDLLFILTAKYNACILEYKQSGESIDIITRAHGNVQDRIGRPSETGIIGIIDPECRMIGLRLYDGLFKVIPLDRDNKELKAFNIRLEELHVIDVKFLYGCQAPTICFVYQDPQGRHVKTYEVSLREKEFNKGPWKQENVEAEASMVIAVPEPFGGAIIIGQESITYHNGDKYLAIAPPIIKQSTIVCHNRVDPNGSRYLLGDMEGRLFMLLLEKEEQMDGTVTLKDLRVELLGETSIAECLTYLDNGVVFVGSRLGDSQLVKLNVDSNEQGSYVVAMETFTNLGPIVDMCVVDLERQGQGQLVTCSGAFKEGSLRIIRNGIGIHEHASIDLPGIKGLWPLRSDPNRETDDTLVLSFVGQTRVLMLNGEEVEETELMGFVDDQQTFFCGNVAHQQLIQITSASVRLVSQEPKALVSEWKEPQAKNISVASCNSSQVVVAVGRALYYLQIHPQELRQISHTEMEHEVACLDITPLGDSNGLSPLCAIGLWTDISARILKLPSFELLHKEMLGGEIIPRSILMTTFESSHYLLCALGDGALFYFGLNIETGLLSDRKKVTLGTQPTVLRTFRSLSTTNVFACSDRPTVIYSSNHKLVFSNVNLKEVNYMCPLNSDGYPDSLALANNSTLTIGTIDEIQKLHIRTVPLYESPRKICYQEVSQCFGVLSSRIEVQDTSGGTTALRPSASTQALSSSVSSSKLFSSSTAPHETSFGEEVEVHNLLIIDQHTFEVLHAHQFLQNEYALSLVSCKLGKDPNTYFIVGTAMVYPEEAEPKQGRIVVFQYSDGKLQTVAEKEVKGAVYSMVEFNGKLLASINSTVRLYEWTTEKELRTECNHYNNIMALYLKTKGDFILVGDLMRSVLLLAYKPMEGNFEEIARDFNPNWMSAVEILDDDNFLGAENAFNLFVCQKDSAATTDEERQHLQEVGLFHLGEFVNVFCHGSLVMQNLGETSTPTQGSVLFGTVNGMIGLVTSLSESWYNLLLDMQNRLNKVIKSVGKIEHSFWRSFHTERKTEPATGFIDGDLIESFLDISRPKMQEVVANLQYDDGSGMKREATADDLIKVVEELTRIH

| Structure (SMILES) | DC50 | Dmax |
| --- | --- | --- |
| O=C1CCC(N2Cc3c(ccc4c3OCC43CCN(Cc4ccnn4-c4ccccc4)CC3)C2=O)C(=O)N1 (centres unmarked) [Compound A246, 3-(6-oxo-1′-((1-phenyl-1H-pyrazol-5-yl)methyl)-6,8-dihydro-2H,7H-spiro[furo[2,3-e]isoindole-3,4′-piperidin]-7-yl)piperidine-2,6-dione] | > 0.5 µM | < 40% |
| O=C1CCC(N2Cc3c(ccc4c3OCC43CCN(Cc4ccc(Cl)c5ccccc45)CC3)C2=O)C(=O)N1 (centres unmarked) [Compound A37, 3-(1′-((4-chloronaphthalen-1-yl)methyl)-6-oxo-6,8-dihydro-2H,7H-spiro[furo[2,3-e]isoindole-3,4′-piperidin]-7-yl)piperidine-2,6-dione] | > 0.5 µM | 40 to 60% |
| CN(C)S(=O)(=O)c1ccc(CN2CCC3(CC2)COc2c3ccc3c2CN(C2CCC(=O)NC2=O)C3=O)cc1 (centres unmarked) [Compound A210, 4-((7-(2,6-dioxopiperidin-3-yl)-6-oxo-7,8-dihydro-2H,6H-spiro[furo[2,3-e]isoindole-3,4′-piperidin]-1′-yl)methyl)-N,N-dimethylbenzenesulfonamide] | > 0.5 µM | < 40% |
| O=C1CCC(N2Cc3c(ccc4c3OCC43CCN(Cc4cccc(OCc5ccccn5)c4)CC3)C2=O)C(=O)N1 (centres unmarked) [Compound A135, 3-(6-oxo-1′-(3-(pyridin-2-ylmethoxy)benzyl)-6,8-dihydro-2H,7H-spiro[furo[2,3-e]isoindole-3,4′-piperidin]-7-yl)piperidine-2,6-dione] | < 0.05 µM | 60 to 80% |
| O=C1CCC(N2Cc3c(ccc4c3OCC43CCN(Cc4ncn(-c5ccccc5)n4)CC3)C2=O)C(=O)N1 (centres unmarked) [Compound A335, 3-(6-oxo-1′-((1-phenyl-1H-1,2,4-triazol-3-yl)methyl)-6,8-dihydro-2H,7H-spiro[furo[2,3-e]isoindole-3,4′-piperidin]-7-yl)piperidine-2,6-dione] | > 0.5 µM | < 40% |
| Cn1c(=O)oc2ccc(CN3CCC4(CC3)COc3c4ccc4c3CN(C3CCC(=O)NC3=O)C4=O)cc21 (centres unmarked) [Compound A175, 3-(1′-((3-methyl-2-oxo-2,3-dihydrobenzo[d]oxazol-5-yl)methyl)-6-oxo-6,8-dihydro-2H,7H-spiro[furo[2,3-e]isoindole-3,4′-piperidin]-7-yl)piperidine-2,6-dione] | > 0.5 µM | < 40% |
| O=C1CCC(N2Cc3c(ccc4c3OCC43CCN(Cc4ccc(OCc5ccccc5)cn4)CC3)C2=O)C(=O)N1 (centres unmarked) [Compound A338, 3-(1′-((5-(benzyloxy)pyridin-2-yl)methyl)-6-oxo-6,8-dihydro-2H,7H-spiro[furo[2,3-e]isoindole-3,4′-piperidin]-7-yl)piperidine-2,6-dione] | > 0.5 µM | < 40% |
| CC(C)c1cccc(CN2CCC3(CC2)COc2c3ccc3c2CN(C2CCC(=O)NC2=O)C3=O)c1 (centres unmarked) [Compound A203, 3-(1′-(3-isopropylbenzyl)-6-oxo-6,8-dihydro-2H,7H-spiro[furo[2,3-e]isoindole-3,4′-piperidin]-7-yl)piperidine-2,6-dione] | > 0.5 µM | < 40% |
| O=C1CCC(N2Cc3c(ccc4c3OCC43CCN(Cc4nncn4-c4ccccc4)CC3)C2=O)C(=O)N1 (centres unmarked) [Compound A253, 3-(6-oxo-1′-((4-phenyl-4H-1,2,4-triazol-3-yl)methyl)-6,8-dihydro-2H,7H-spiro[furo[2,3-e]isoindole-3,4′-piperidin]-7-yl)piperidine-2,6-dione] | > 0.5 µM | < 40% |
| O=C1CCC(N2Cc3c(ccc4c3OCC43CCN(Cc4ccccc4OCc4ccccn4)CC3)C2=O)C(=O)N1 (centres unmarked) [Compound A157, 3-(6-oxo-1′-(2-(pyridin-2-ylmethoxy)benzyl)-6,8-dihydro-2H,7H-spiro[furo[2,3-e]isoindole-3,4′-piperidin]-7-yl)piperidine-2,6-dione] | < 0.05 µM | 60 to 80% |
